Experiment [1] concerns HIV-1 NL4.3-Nef+/GFP+. Put plainly: Infection of HeLa-β-Gal-CD4/CCR5 cells by virus from producer cells expressing the IN C-terminal domain, MAGI assay. The format is cell-based. Particulars: viruses produced by 293T cells expressing the protein, 48 h post-infection.
The subject of experiment [2] is HIV-1 NL4.3-Nef+/GFP+. Put plainly: Infection of MT4 cells by virus from producer cells expressing the IN C-terminal domain, GFP-positive cell count. Particulars: viruses produced by 293T cells expressing the protein, 48 h post-infection. The experiment is classed as cell-based.

For “IN C-terminal domain: T7-tagged HIV-1 integrase C-terminal domain 205-288 (SEQ ID NO:2) expressed in viral producer cells”, the “virus infection of HeLa-β-Gal-CD4/CCR5 cells” value in the experiment with HIV-1 NL4.3-Nef+/GFP+ [1] is listed as “significantly impaired”. Besides, the “virus infection of MT4 cells” value in the experiment on HIV-1 NL4.3-Nef+/GFP+ [2] is “significantly impaired”.

Values taken from US20070203325A1, “Integrase-dirived HIV-inhibiting agents” (priority 2006, published 2007).
